Test results reported in article PMC5712521, “Dendrogenin A drives LXR to trigger lethal autophagy in cancers” (Nature Communications, 2017).

Key:
Type in all cases: cell-based, human
[1] = tested on: SKMEL-28 cells; assay: Immunoblot densitometry (LC3-II); conditions: 2.5 µM DDA; for LC3-II protein, densitometry relative to control: SKMEL-28, 24 h, 10 µM 22(R)HC, 100 nM TO; for LC3-II protein, densitometry relative to untreated / LC3-II protein, densitometry: 24 h
Description: (§1) Immunoblotting was carried out as described previously. Proteins were separated on SDS-PAGE gels, electro-transferred onto polyvinylidene difluoride membranes and incubated overnight at 4 °C with the following antibodies: anti-Atg3, anti-Atg5 (D1G9), anti-Atg7 (D12B11), anti-Beclin (D40C5), anti-caspase-3 (Cell Signaling), anti-Bcl-2 (Millipore), anti-Bax (Millipore), anti-LC3 (Sigma-Aldrich), anti-LXRα (SantaCruz), anti-LXRβ (SantaCruz), anti-Nur77 (Active motif), anti-NOR1 (R&D systems), anti-PARP (Cell Signaling), anti-Vps34 (Cell Signaling), or anti-Actin (Millipore). For visualization, an ECL plus kit (Amersham Biosciences) was used, and chemiluminescence was measured by autoradiography (Supplementary Fig. 9). Specific bands were quantified with ImageQuant software.

[2] = tested on: KG1 cells; assay: Immunoblot densitometry; conditions: 5 µM DDA; for LC3-II protein, densitometry relative to control: KG1, 24 h, 2 µM TO, 2 µM GW, 10 µM 22(R)HC
Description: as §1
Supplementary Fig. 6. […]
D ata from b, f, g, h, j, p, q ar e the m eans ± S.E.M. of 3 independent experiments performed in triplicate (*P<0.05, **P<0.01, ***P<0.001, t test). Images are representative of 3 independent experim ents.
Supplementary Fig. 7. a Im munoblots of Nur77 and NOR1 proteins in cells treated or not for 24 h with 5 µM DDA. b Real-time PCR of Nur77 and NOR1 expression in KG1 cells stably transfected with control shRNA (clone shCTRL) or with shRNA against LXRβ (clones sh3LXRβ and sh4LXRβ) and treated with 10 µM DDA for 24 h. c Immunoblots of Nur77 and NOR1 protein expression in KG1 cells stably transfected with control shRNA (clone shCTRL), shRNA against Nur77 (shNur77), shRNA against NOR1 (shNOR1), or shRNAs against both Nur77 and NOR1 (shNur77 + shNOR1). d NOD/SCID mice
(n=16- 20 mice/group) engrafted with KG1 cells or HL60 cells were treated with DDA (20 mg/kg/day, i.p.) or solvent vehicle (control). Tumor growth was monitored over time and was analyzed for significance using repeated measures ANOVA (***P<0.001). The mean tumor volumes ± SEM are shown. e Average tumor weight at the end of the experiments in d. *P<0.5, **P<0.01, ANOVA. f Mean tumor volumes measured at the end of the experiments for HL60 and KG1 graf ted into NOD/SCID or NMRI-Fo x1 -nude mice treated with DDA (40 mg/kg/day, p.o. or 20 mg/kg/day, i.p.) or solvent vehicle (control) (n=10- 20 mice per group). Values represent the means ± S.E.M. (**P<0.01, ***P<0.001, ANOVA). g Histochemical analysis of the expression of LC3 and P62 in HL60 tumor sections isolated from NOD/SCID mice treated or not with DDA (20 mg/kg/day, i.p.). h Quantification of LC3 punctate cells in shCTRL and shLXRβ KG1 tumors. i Quantification of DDA levels in tumors 4 h after the final administration of DDA. j Box plot of TCGA RNA-seq data from patients with melanoma showing that LXRβ is the predominant LXR isoform expressed.
***P<0.001. k, l Immunoblotting of the indicated proteins in primary AML cells exposed to vehicle or 5 µM DDA for 24 h. m, n qPCR analysis of the expression of Nur77 and NOR1 in primary AML cells from 10 patients exposed to vehicle or DDA for 24 h. Bars represent S.E.M. (**P<0.01, ***P<0.001, t test). Data from b, h, i represent means ± S.E.M. of triplicate samples (>100 cell analyses per sample), **P<0.01, ***P<0.001, t test. All data or images are representative of 3 independent experiments.

[3] = tested on: SKMEL-28 cells; assay: Sterol analysis by GC/MS
Description: Sterols in cell homogenates were extracted with a solvent mixture containing chloroform/methanol 2/1 (v/v) spiked with epicoprostanol as the internal standard. Lipids were partitioned in chloroform after the addition of saline and saponified by methanolic potassium hydroxide (0.5 N, 60 °C, 15 min). The fatty acids released were methylated with BF3-methanol (12%, 60 °C, 15 min) to not interfere with the chromatography of sterols. The sterols were re-extracted in hexane and silylated, as described previously. The trimethylsilylether derivatives of the sterols were separated by gas chromatography (GC) (Hewlett–Packard 6890 series) in a medium polarity capillary column RTX-65, (65% diphenyl 35% dimethyl polysiloxane, length 30 m, diameter 0.32 mm, film thickness 0.25 μm (Restesk, Evry, France)). The mass spectrometer (Agilent 5975 inert XL) in series with the GC was set up for the detection of positive ions. Ions were produced in the electron impact mode at 70 eV. Sterols were identified by the fragmentogram in the scanning mode and quantified by selective monitoring of the specific ions after normalization with the internal standard epicoprostanol and calibration with weighed standards. […]
Quantification of sterols ac cum ulation in SKMEL- 2 8 c ells either expressing LXRβ (shCT L) or with LXRβ (sh3 or sh4LXR β) k nock ed down after 24 h treatm ent with 2.5 µ M DD A or solvent vehicle. Anal yses were perform ed by GC/MS. f Quantification of sterols accumulated in m elanom a cells after 24 h treatm ent with 10 µM 22(R) HC, 1 µ M GW , 100 nM T O or solvent […]
vehicle. […]

[4] = SKMEL-28, 24 h, 10 µM 22(R)HC, 1 µM GW, 100 nM TO, GC/MS
[5] = SKMEL-28 Sh3LXRβ, 2.5 µM DDA, 24 h
[6] = SKMEL-28 Sh4LXRβ, 2.5 µM DDA, 24 h
[7] = SKMEL-28 shCTRL, 2.5 µM DDA, 24 h

With `CC(C)CC[C@@H](O)[C@@H](C)[C@H]1CC[C@H]2[C@@H]3CC=C4C[C@@H](O)CC[C@]4(C)[C@H]3CC[C@]12C` [22(R)HC, 22(R)-hydroxycholesterol] the “LC3-II protein, densitometry relative to control” value [1] was 1, the “LC3-II protein, densitometry relative to control” value [2] was 1.5 and the “Sterol amount/total sterol: 8-DHC” value [3, 4] was 0.05± 0.03. For the same molecule, the “Sterol amount/total sterol: zymostenol” value [3, 4] was 0.37± 0.07.
With `CC(C)CCC[C@@H](C)[C@H]1CC[C@H]2[C@@H]3C[C@@H](NCCc4cnc[nH]4)[C@@]4(O)C[C@@H](O)CC[C@]4(C)[C@H]3CC[C@]12C` [DDA, Dendrogenin A] the “LC3-II protein, densitometry relative to control” value [1] was 2.5, the “LC3-II protein, densitometry relative to untreated” value ([1]; SKMEL-28 sh3LXRβ) was 2.1 and the “LC3-II protein, densitometry relative to untreated” value ([1]; SKMEL-28 sh4LXRβ) was 2.6. For the same molecule, the “LC3-II protein, densitometry relative to untreated” value ([1]; SKMEL-28 shCTRL) was 5.5, the “LC3-II protein, densitometry” value ([1]; SKMEL-28 siATG7) was 1.1 and the “LC3-II protein, densitometry” value ([1]; SKMEL-28 siBECN1) was 1.3. The “LC3-II protein, densitometry” value ([1]; SKMEL-28 siNOR1 + siNur77) was 3.2, the “LC3-II protein, densitometry” value ([1]; SKMEL-28 siNOR1) was 2.2 and the “LC3-II protein, densitometry” value ([1]; SKMEL-28 siNur77) was 1.8. For the same molecule, the “LC3-II protein, densitometry” value ([1]; SKMEL-28 siVPS34) was 1.2, the “LC3-II protein, densitometry relative to control” value [2] was 8.3 and the “ATG3 protein, densitometry relative to vehicle” value ([2]; KG1, 24 h) was 2.1. The “ATG5 protein, densitometry relative to vehicle” value ([2]; KG1, 24 h) was 0.9, the “ATG7 protein, densitometry relative to vehicle” value ([2]; KG1, 24 h) was 1.2 and the “BECN1 protein, densitometry relative to vehicle” value ([2]; KG1, 24 h) was 0.9. For the same molecule, the “NOR1 protein, densitometry relative to untreated” value ([2]; KG1, 24 h) was 3.1, the “Nur77 protein, densitometry relative to untreated” value ([2]; KG1, 24 h) was 3.4 and the “Sterol amount/total sterol: 7-DHC” value [3, 5] was 0.03± 0.02. The “Sterol amount/total sterol: 8-DHC” value [3, 5] was 1.52± 0.10, the “Sterol amount/total sterol: desmosterol” value [3, 5] was 0.01± 0.009 and the “Sterol amount/total sterol: lathosterol” value [3, 5] was 0.71± 0.02. For the same molecule, the “Sterol amount/total sterol: zymostenol” value [3, 5] was 5.78± 0.82, the “Sterol amount/total sterol: 7-DHC” value [3, 6] was 0.39± 0.09 and the “Sterol amount/total sterol: 8-DHC” value [3, 6] was 4.32± 0.66. The “Sterol amount/total sterol: desmosterol” value [3, 6] was 0.02± 0.005, the “Sterol amount/total sterol: zymostenol” value [3, 6] was 6.57± 0.92 and the “Sterol amount/total sterol: 7-DHC” value [3, 7] was 0.03± 0.006. The “Sterol amount/total sterol: 8-DHC” value [3, 7] was 5.81± 0.89, the “Sterol amount/total sterol: desmosterol” value [3, 7] was 0.01± 0.008 and the “Sterol amount/total sterol: lathosterol” value [3, 7] was 0.41± 0.03. The “Sterol amount/total sterol: zymostenol” value [3, 7] was 2.60±0.07.
`O=C(O)Cc1cccc(OCCCN(Cc2cccc(C(F)(F)F)c2Cl)CC(c2ccccc2)c2ccccc2)c1` [GW, GW3965] was tested, and the “LC3-II protein, densitometry relative to control” value [2] was 0.8, the “Sterol amount/total sterol: 8-DHC” value [3, 4] was 0.07± 0.01 and the “Sterol amount/total sterol: zymostenol” value [3, 4] was 0.29± 0.09.
In the case of `O=S(=O)(c1ccccc1)N(CC(F)(F)F)c1ccc(C(O)(C(F)(F)F)C(F)(F)F)cc1` [TO, TO901317], the “LC3-II protein, densitometry relative to control” value [1] is reported as 0.9, the “LC3-II protein, densitometry relative to control” value [2] is reported as 1.0 and the “Sterol amount/total sterol: 8-DHC” value [3, 4] is reported as 0.04± 0.02. The “Sterol amount/total sterol: zymostenol” value [3, 4] was 0.36± 0.08.
